Reference: US6488938B1, “Polylactic acid scleral plug” (Santen Pharmaceutical Co., Ltd., priority 1997, dated 2002)

Experiment: Release test of ganciclovir from scleral plug in phosphate buffered solution
Type: physicochemical
Settings: phosphate buffered solution (0.1 M, pH 7.4)
Protocol: The scleral plug produced in Example 1 was shaken in a phosphate buffered solution (0.1 M, pH 7.4) to release a drug (ganciclovir). The release medium was collected at predetermined intervals and replaced with a new buffer. These operations were repeated. Absorbance of the release medium at 254 nm was measured with a spectrophotometer, and an amount of the released drug was determined.

decomposition of drug during the release test: does not decompose
SMILES: Nc1nc(O)c2ncn(COC(CO)CO)c2n1 [ganciclovir]
